A short description of series [1]: Caco-2 trans-well apparent permeability assay. The note with it: human, pH 7.4. Type of series: in vitro ADME. The method, then:
To initially characterize the permeability of BKIs 1294, 1369, and 1318, the software MedChem Designer (Simulations +, Lancaster, CA) was used to predict the Peff. The in vitro apparent permeability (Papp) was carried out by Absorption Systems LP (Exton, PA) with a Caco-2 trans-well assay. Caco-2 cells (clone C2BBe1) were obtained from American Type Culture Collection (Manassas, VA) were grown to confluence on collagen-coated, microporous membranes in 12-well assay plates. The permeability assay buffer was Hanks’ balanced salt solution (HBSS) containing 10 mM HEPES and 15 mM glucose at a pH of 7.4. The buffer in the receiver chamber also contained 1% bovine serum albumin. The dosing solution concentration was 5 µM BKI in assay buffer, and the cell monolayers were dosed on the apical side (A?B) or basolateral side (B?A) and incubated at 37°C with 5% CO2 in a humidified incubator. After 120 minutes, samples were taken from the donor and receiver chambers in duplicate. The Papp was calculated with equation (1) and the percent recovery with equation (2).
Papp = (dCr/dt) × Vr/(A × CA) (1)
Percent Recovery = 100 × ((Vr × Cr^final) + (Vd × Cd^final))/(Vd × […]) (2)
where dCr/dt is the slope of the cumulative concentration in the receiver compartment versus time in µM s^-1; Vr is the volume of the receiver compartment in cm^3; Vd is the volume of the donor compartment in cm^3; A is the area of the insert (1.13 cm^2 for 12-well); CA is the average of the nominal dosing concentration and the measured 120 minute donor concentration in µM; CN is the nominal concentration of the dosing solution in µM; Cr^final is the cumulative receiver concentration in µM at the end of the incubation period; Cd^final is the concentration of the donor in µM at the end of the incubation period.
(§1) To ensure no damage was inflicted to the cell monolayers during the flux period, lucifer yellow flux was also measured post-experimentally for each monolayer. To determine whether BKIs 1294, 1369, and 1318 were substrates of P-gp in vitro, P-gp efflux was characterized using the Caco-2 permeability assay protocol with a few modifications. The dosing solution concentration was 5 μM of BKI in the assay buffer +/- 1 μM valspodar. Cells were first pre-incubated for 30 minutes with HBSS containing +/- 1 μM valspodar. Cell monolayers were dosed on the apical side (A?B) or basolateral side (B?A), and incubated at 37°C with 5% CO2 in a humidified incubator. Samples were taken from the donor and receiver chambers at 120 minutes. Each determination was performed in duplicate.

In another series the target is T1, P-gp (Homo sapiens, UniProt P08183).
T1 construct: endogenous in cells; host or cells: Caco-2 cells (clone C2BBe1, ATCC); assay run by Absorption Systems LP
In words: Caco-2 P-gp efflux assay +/- valspodar. The class given is in vitro ADME. The note with it: Caco-2.
Text: Given the well-known role of P-gp in the efflux of many diverse drugs, the adenosine triphosphate–binding cassette (ABC) transporter was specifically chosen for initial studies, to identify the transporter responsible for BKI1318’s relatively low Papp. A Caco-2 system with overexpression of P-gp was used to verify the role of P-gp in BKI1318 transport (Supplementary Table 2). […] It should be noted that this experiment characterized the importance of P-gp with a single concentration of BKI1318. The kinetics of BKI1318 transport mediated by P-gp are still unknown, and it is not clear how the fraction of absorption mediated by P-gp transport will change with different concentrations of BKI1318.
as §1
Background: Caco-2 monolayers are a common model of the intestinal barrier.

Series [2] deals with C. parvum. In words: Hollow fiber in vitro Cryptosporidium culture with polarized HCT-8 cells. Type of series: cell-based, Cryptosporidium parvum. As for the experimental part:
C. parvum was cultured using a hollow fiber bioreactor modified for evaluation of potential chemotherapeutic compounds [[21–23]]. Briefly, the system used a 20-kD MWCO polysulfone fiber cartridge (FiberCell Systems, Frederick, MD). HCT-8 cells were grown on the outer surface of the fibers (extracapillary space), and reservoirs were used to provide nutrients to the cells. When the glucose concentration decreased to at least 2 g/L, the extracapillary space was inoculated with 10^6C. parvum (Iowa isolate, Bunch Grass Farms, Deary, ID). […] Compound concentration was reduced over time by the flow of medium through the extracapillary and intracapillary spaces. Samples were removed from the extracapillary space once per day for evaluation of parasite numbers.
C. parvum growth was determined by analysis of the amount of C. parvum 18S-rRNA present and compared to the HCT-8 18S-rRNA as previously described^3. Briefly this was performed by centrifugation at 14,000 x g for 5 min of 0.5 mL samples collected from the extracapillary space (ECS). The pellet was resuspended in 100 µL of iScript buffer and subject to 6-freeze/thaw cycles comprising 1 min in liquid nitrogen followed by 1.5 min at 70 °C. The lysate was collected by centrifugation at 16,162 x g for 5 min, and the RNA purified according to the manufacturer’s instructions (iScriptTM, RT-qPCR sample preparation kit, Bio-Rad Laboratories). C. parvum was enumerated by quantitating the Cp18S-rRNA using the following specific forward and reverse primers - Cp18S-995F: 5’-[…]-3’ and Cp18S-1206R: 5’-[…]-3’ and compared to the human Hs18S-rRNA using the following primer sets - Hs18S-F1373: 5’-[…]-3’ and Hs18S-R1561: 5’-[…]-3’. The amount of 18S-rRNA was determined using 5 ng samples by RT-qPCR as described the manufacturer instructions using a Luna Universal One-Step® RT-qPCR kit (New England Biologics) and a Quant Studio 6 Flex 44 instrument. The cell number is calculated from the CT means using a set of standards prepared from 10^4, 10^5, and 10^6 C. parvum oocysts and compared to 10^4, 10^5, and 10^6 HCT-8 cells.

The subject of another series is Cryptosporidium. Details: method as in PMID 28329187. The note with it: cited from earlier work.
For series [3], the system named is C. parvum. Details: method as in PMID 28329187. The note with it: previously published study; cited from earlier work.
Series [4] is described as follows: In vitro solubility at pH 2 and 6.5. Type of series: physicochemical. The note with it: pH 2, represents stomach; read-out: Solubility (pH 2). As for the experimental part: Figure 1. Structures, in vitro efficacy, and physicochemical properties of bumped kinase inhibitors (BKIs). […] Solubilities for each BKI were measured at pH 2 and 6.5, to represent the stomach and small intestinal environments, respectively. The human effective permeability (Peff) was predicted as described in Materials and Methods.

In the next series the test system is Cryptosporidium parvum. In words: C. parvum growth inhibition, nonpolarized HCT-8 coculture assay. The class given is cell-based. The source says: Information regarding C. parvum growth inhibition by BKIs, the hollow fiber model, liquid chromatography–tandem mass spectrometry (LC-MS/MS) methods, and the interferon γ (IFN-γ) knockout (KO) mouse model of C. parvum infection has been described in detail previously [[15], [20–23]]. Information on BKI permeability, LC-MS/MS quantification of elacridar, and quantification of Cryptosporidium by polymerase chain reaction analysis is described in the Supplementary Materials. Unless noted otherwise, statistical significance was determined with an unpaired Student t test, using a significance level of 0.05.
To evaluate the potential impact of P-gp efflux on BKI1318 in vitro efficacy, in vitro assays with polarized and nonpolarized HCT-8 cells were evaluated. The nonpolarized HCT-8 coculture assay to screen anti-Cryptosporidium drug candidates has been previously reported by us in detail. […] Based on the reported elacridar half maximal inhibitor concentration for the inhibition of P-gp, the P-gp activity was predicted to be reduced with both elacridar concentrations. […] Elacridar alone had no effect on C. parvum levels.

In series [5] the test system is C. parvum. In words: IFN-γ KO mouse model of Cryptosporidium infection. Type of series: in vivo, mice. The following applies: IFN-γ KO mice. The method, then: Efficacy in female IFN-γ KO mice (B6.129S7-Ifngtm1Ts/J; Jackson Laboratories) aged 8–10 weeks was evaluated as previously described. Beginning on day 6 after infection, mice were dosed with 30 mg/kg BKI1318 suspended in 0.2 mL of vehicle, 15 mg/kg elacridar in 0.1 mL of vehicle followed 15 minutes later by 30 mg/kg BKI1318 in 0.1 mL of vehicle, or 0.2 mL of vehicle only once daily for 5 days. Fecal specimens were collected daily from each group and weighed. Each fecal sample was checked for luminescence on the day of collection, and the number of relative light units was determined and normalized to fecal sample weights.

Series [6] can be described thus: Mouse gastrointestinal tissue pharmacokinetics. Type of series: in vivo, mice. The following applies: mouse, oral; for AUC(0-t): read-out: AUC0-12; for Cmax: read-out: Observed Cmax; for Tmax: read-out: Tmax.
Description: At multiple time points following BKI1318 administration, mice were euthanized, and the GI tract was separated into segments corresponding to the duodenum, jejunum, ileum, and cecum/colon. […] At 0.5, 1, 2, 4, 8, and 12 hours, three mice in each group were sacrificed by cervical dislocation, and the duodenum, jejunum, ileum, and cecum/ascending colon were immediately collected. Each section of the GI tract was flushed with Dulbecco's phosphate-buffered saline, weighed, and placed in storage at -80°C. On the day of homogenization, 0.9% NaCl was added to each sample to achieve 200 mg/mL tissue concentration. Samples were homogenized using a handheld motorized homogenizer (Fisher Scientific, Waltham, MA) on ice and stored at -20°C until extraction and analysis. To report tissue concentrations, 1 gram of tissue was estimated to be 1 mL of volume.
The mark [7] stands for this setting: cecum/colon, elacridar in Cecum/Colon.
The mark [8] stands for this setting: duodenum, elacridar in Duodenum.

The source of these data is paper PMC6736360, “P-Glycoprotein–Mediated Efflux Reduces the In Vivo Efficacy of a Therapeutic Targeting the Gastrointestinal Parasite Cryptosporidium” (The Journal of Infectious Diseases, 2019).

Like-named read-outs stand apart in the source and are kept apart here. Some results are limits rather than exact numbers.

T1 sequence (P08183 whole entry): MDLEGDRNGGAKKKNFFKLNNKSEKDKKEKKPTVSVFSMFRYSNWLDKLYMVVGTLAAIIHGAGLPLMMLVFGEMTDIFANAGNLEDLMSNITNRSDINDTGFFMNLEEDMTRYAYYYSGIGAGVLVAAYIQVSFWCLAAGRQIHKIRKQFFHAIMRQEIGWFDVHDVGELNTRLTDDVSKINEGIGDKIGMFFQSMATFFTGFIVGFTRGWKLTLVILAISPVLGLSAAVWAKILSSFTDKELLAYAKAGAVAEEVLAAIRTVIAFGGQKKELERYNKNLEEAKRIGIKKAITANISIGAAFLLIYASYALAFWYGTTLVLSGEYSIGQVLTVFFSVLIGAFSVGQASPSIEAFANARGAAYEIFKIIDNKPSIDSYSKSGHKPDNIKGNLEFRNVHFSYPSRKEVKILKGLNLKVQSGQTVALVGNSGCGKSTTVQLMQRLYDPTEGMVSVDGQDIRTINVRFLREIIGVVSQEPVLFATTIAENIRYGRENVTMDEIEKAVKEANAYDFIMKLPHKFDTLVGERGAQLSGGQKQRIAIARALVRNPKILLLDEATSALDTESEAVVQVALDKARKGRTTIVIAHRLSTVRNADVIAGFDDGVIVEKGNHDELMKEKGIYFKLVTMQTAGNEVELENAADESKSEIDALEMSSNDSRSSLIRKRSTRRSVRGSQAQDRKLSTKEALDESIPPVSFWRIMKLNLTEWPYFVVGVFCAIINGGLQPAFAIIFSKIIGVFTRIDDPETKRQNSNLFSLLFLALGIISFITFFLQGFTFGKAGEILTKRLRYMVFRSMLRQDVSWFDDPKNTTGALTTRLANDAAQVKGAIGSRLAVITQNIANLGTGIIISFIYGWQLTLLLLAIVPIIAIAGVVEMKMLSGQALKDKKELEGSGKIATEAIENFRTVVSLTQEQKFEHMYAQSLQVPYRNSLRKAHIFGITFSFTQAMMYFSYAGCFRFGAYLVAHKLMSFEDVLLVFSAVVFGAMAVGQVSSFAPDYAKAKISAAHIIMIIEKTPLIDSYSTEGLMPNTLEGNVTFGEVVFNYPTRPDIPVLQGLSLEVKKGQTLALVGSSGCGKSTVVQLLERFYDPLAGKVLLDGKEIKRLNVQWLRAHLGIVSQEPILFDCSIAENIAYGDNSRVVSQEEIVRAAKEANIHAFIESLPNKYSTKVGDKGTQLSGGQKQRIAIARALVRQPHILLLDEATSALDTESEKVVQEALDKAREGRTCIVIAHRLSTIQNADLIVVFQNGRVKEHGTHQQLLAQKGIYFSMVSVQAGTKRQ

As usually defined, the Papp A→B is the apparent permeability from the apical to the basolateral side of a cell layer. As to `CC(C)NCC(O)COc1cccc2ccccc12` (stereo not drawn) [Propranolol, reference compound], in series [1] (Caco-2, 5 µM, 120 minutes), the apical-to-basolateral permeability (Papp A→B) at 120 min, 5 µM came out at 23.2 ×10⁻⁶ cm/s.

For the compound `C[C@H]1O[C@@H](O[C@H]2[C@@H](O)C[C@H](O[C@H]3[C@@H](O)C[C@H](O[C@H]4CC[C@@]5(C)[C@H](CC[C@@H]6[C@@H]5C[C@@H](O)[C@]5(C)[C@@H](C7=CC(=O)OC7)CC[C@]65O)C4)O[C@@H]3C)O[C@@H]2C)C[C@H](O)[C@@H]1O` [digoxin, reference compound], the “P-gp Substrate Classification” value on P-gp was “Positive”.

As a reminder, the solubility is the dissolved amount per volume that the medium holds. As usually defined, the Papp B→A is how fast a substance crosses the layer from the basolateral side. For orientation: EC50 means the concentration at which the effect is half-maximal. `CCOc1ccc2cc(-c3nn(CC4CCN(C)CC4)c4ncnc(N)c34)ccc2c1` [BKI1294]: the “Reduction of C. parvum levels over the course of the study” value in the series with C. parvum [2] (hollow fiber model, polarized HCT-8 cells) is > 3 orders of magnitude. Also, the “Reduction in C. parvum level by 24 hours after the final dose, on day 4” value in the series on C. parvum [2] (hollow fiber, once per day for 4 days, BKI1294 80 µM, BKI1369 40 µM) was more than 6 log. Moreover, in the series with Cryptosporidium, the “Efficacy in neonatal mouse model of Cryptosporidium infection” value was “efficacious”. Also, the “C. parvum reduction in mouse model of cryptosporidiosis” value in the series on C. parvum [3] is more than 2 log. In addition, in series [4], the solubility was more than 100 µM. Besides, the “P-gp Substrate Classification” value at P-gp is reported as “Negative”. In addition, the recovery at 120 min, 5 µM in series [1] (Caco-2 assay, A→B for BKI 1294, read-out: Percent recovery) amounted to 62%. Further, in series [1] (Caco-2, 5 µM, 120 minutes), the Papp A→B at 120 min, 5 µM was 12.7 ×10⁻⁶ cm/s and the Papp B→A at 120 min, 5 µM stood at 22.6 ×10⁻⁶ cm/s. Also, the EC50 in the series with Cryptosporidium parvum (Cryptosporidium parvum, HCT-8, in vitro, read-out: C. parvum EC50) is 2.7 µM.

One may read the Cmax as the highest concentration seen after dosing. As a reminder, the Tmax is the time at which the peak concentration occurs. For the compound `COc1cc2c(cc1OC)CN(CCc1ccc(NC(=O)c3cccc4c(=O)c5cccc(OC)c5[nH]c34)cc1)CC2` [elacridar, reference compound], in the series on C. parvum [2] (hollow fiber model, compound alone, 80 µM once daily), the “Effect on C. parvum levels/growth” value is “no effect”. In addition, the “Effect on C. parvum levels” value in the series with Cryptosporidium parvum (nonpolarized HCT-8 cells, compound alone) is listed as “no effect”. Besides, the “Effect on Cryptosporidium infection, administered alone” value in the series with C. parvum [5] was “no effect”. Further, the AUC(0-t) was determined as 12.6 ± 8.5 µM·h in series [6] (setting [7]); 118 ± 4.9 µM·h in series [6] (setting [8]); 170 ± 45.7 µM·h in series [6] (ileum, elacridar in Ileum); 104 ± 21.4 µM·h in series [6] (jejunum, elacridar in Jejunum). In addition, the maximum concentration (Cmax) in [6] (setting [7]) was found to be 3.3 ± 3.1 µM; in series [6] (setting [8]) it was 61.2 µM; in series [6] (ileum, elacridar in Ileum) it was 35.2 µM; in series [6] (jejunum, elacridar in Jejunum), 32.6 µM. Besides, the Tmax in [6] (setting [7]) amounted to 6 h; in series [6] (setting [8]), 0.6 h; in [6] (ileum, elacridar in Ileum), 1.7 h; in series [6] (jejunum, elacridar in Jejunum), 0.6 h.
